Paper PMC3877906, “Polypeptide Modulators of TRPV1 Produce Analgesia without Hyperthermia” (Marine Drugs, 2013)

How the values were obtained:
TRPV1 [1] = conditions: ref [14], cited from earlier work
Procedure: APHC3’s mode of action was measured on HEK-293 cells using a whole-cell patch clamp approach and single cell Ca^2+ imaging. […] APHC3 is highly homologous to APHC1, differing in four of 56 amino acids. APHC1 and APHC3 have a primary structure that is highly homologous to BPTI/Kunitz type seri ... || The residues responsible for APHC’s activity are not determined. […] These dif ...

TRPV1 [2] = assay: low pH-induced TRPV1 receptor currents/activation; assay type: cell-based; conditions: pH 5.5
Source text: The residues responsible for APHC’s activity are not determined. […] These differences in pharmacology were expressed further in the in vivo results.

CD-1 mice = assay: open-field locomotor activity test; assay type: in vivo, mouse; conditions: 0.1 mg/kg i.v.; vs saline; n = 9 per group; 3 min recording
Source text: We conducted multiple in vivo experiments to assess the biological effects of APHC1 and APHC3, acting via modulation of TRPV1, on temperature sensation and inflammation. Possible negative effects of investigated components on the central nervous system were first excluded. We evaluated APHC1/3 in open-field locomotor activity tests as compounds capable of reducing locomotor activity could misrepresent results of other behavioral tests (particularly in pain models). […] There was no significant effect detected for either polypeptide at a dose of 0.1 mg/kg i.v. (Figure 3a).
All experiments were performed in accordance with the recommendations in the “Principles of Laboratory Animal Care” and after approval by the Animal Care and Use Committee of the Branch of the IBCh RAS (Pushchino, Russia). Adult male CD-1 mice (Animal Breeding Facility Branch of Shemyakin-Ovchinnikov Institute of Bioorganic Chemistry, Russian Academy of Sciences, Pushchino, Russia) weighing 20–25 g were used. […]
The significance of the data was determined by analysis of variance (ANOVA) followed by Tukey’s test. […]
Open-field activity was measured using a system that counts interruptions in a set of photo beams (OPTO—VARIMEX (Columbus Instruments, Columbus, OH, USA) and ATM3 Auto System using Auto-Track Version 4.2 software). Spontaneous locomotor activity was recorded for 3 min.

TRPV1 [3] = assay: single cell Ca^2+ imaging, acid-induced (pH 5.5) responses of TRPV1-positive HEK-293 cells; assay type: cell-based, rat; conditions: for inhibition of acid responses: Fura-2, mean ± s.d.
Procedure: Figure 2 Effects of APHC3 on recombinant TRPV1 expressed in HEK-293 cells. (a) Resting current recorded from a TRPV1-positive cell held at −30 mV. […] Straight lines above the recording indicate application of APHC3 (Long line) and capsaicin (Short lines). The cells were stimulated and rinsed by rapid switching of the bath solution between the control solution and solutions containing the indicated compound. (b) Capsaicin responses in control and in the presence of the 300 nM APHC3 peptide. In each case, the control response was calculated as an average of two acid responses recorded just prior to peptide application. Averaged responses recorded in the presence of APHC3 were normalized to averaged control responses. Those are presented as the mean ± s.d. (n = 4). […] (c, d) Cell responses to the acidification of the bath solution from pH 7.4 to pH 5.5 in control and in the presence of the APHC3 applied at different concentrations as indicated. The experimental traces in (c) and in (d, upper trace) illustrate representative responses of EGFP/TRPV1-positive cells. The bottom trace in (d) represents responses of an EGFP/TRPV1-negative cell assayed simultaneously. (e) Acid responses recorded in the presence of APHC3 (90, 160 and 240 nM) normalized to a control response. The data are presented as the mean ± s.d. (n = 5–10). […] In each case, the control response was calculated as an average of the two acid responses recorded just prior to peptide application. The average of the two acid responses recorded after peptide application was calculated and normalized to the control response. Experimental traces in (c, d) were obtained from three different cells. The changes in bath solution pH (continuous lines) and APHC3 applications (thick straight lines) are shown above the fluorescence traces. Cells were stimulated and rinsed by a rapid replacement of the control bath solution with modified bath solution at pH 5.5 with or without APHC3.
HEK-293 cells were cultured in Dulbecco’s modified Eagle’s medium (DMEM) (Life Technologies, Grand Island, NY, USA) containing 10% (vol/vol) fetal bovine serum (Thermo Fisher Scientific, Palm Beach, FL, USA), glutamine (1%) and the antibiotic gentamicin (100 μg/mL) (Life Technologies, Grand Island, NY, USA). The pIRES2-EGFP plasmid harboring rat TRPV1 cDNA was transiently transfected into HEK-293 cells by replacing the growth medium in each well with a transfection mixture, containing 1.6 μg of DNA and 4 μL of Lipofectamine (Life Technologies, Grand Island, NY, USA) in 1 mL of serum-free DMEM. After incubating for 6 h, the transfection mixture was replaced with normal culture medium. Cells were assayed within 48–96 h after transfection.

APHC1: polypeptide modulator of TRPV1 from sea anemone Heteractis crispa; homologous to BPTI/Kunitz type serine-protease inhibitors; produced recombinantly in E. coli (GSICLEPKVVGPCTAYFRRFYFDSETGKCTVFIYGGCEGNGNNFETLRACRAICRA; left off: TRX, end not stated, cleaved)
inhibition of capsaicin-induced currents (TRPV1 [1]; more than 200 nM): ~ 32%
activity on capsaicin-induced TRPV1 currents, in words (TRPV1 [1]; previous study): partial antagonist
effect on low pH-induced TRPV1 activation, in words (TRPV1 [2]): unable to observe any effect
travelled distance and rearing, open-field locomotor activity (CD-1 mice): did not significantly alter normal mouse behavior

APHC3: polypeptide from Heteractis crispa highly homologous to APHC1, differing in four of 56 amino acids; produced recombinantly in E. coli (GSICLEPKVVGPCTAYFPRFYFNSETGKCTPFIYGGCEGNGNNFETLRACRGICRA; left off: TRX, end not stated, cleaved)
reversibility of inhibitory effects (TRPV1 [3]; after washout of the polypeptide, Figure 2a,c,d (capsaicin currents and acid responses)): almost completely reversible
inhibition of acid-induced Ca^2+ transients, significance (TRPV1 [3]; pH 5.5, 160 and 240 nM, Student test, p < 0.05): statistically significant at 160 and 240 nM
inhibition of acid responses, in words (TRPV1 [3]; pH 5.5, APHC3 90 nM, n = 5): insignificantly effective
inhibition of acid responses (TRPV1 [3]; pH 5.5, APHC3 160 nM, n = 7): 15% ± 9%
inhibition of acid responses (TRPV1 [3]; pH 5.5, APHC3 240 nM, 10 cells): 77% ± 14%
effect on low pH-induced TRPV1 activation, in words (TRPV1 [2]): inhibited acid-induced (pH 5.5) activation of the receptor
travelled distance and rearing, open-field locomotor activity (CD-1 mice): did not significantly alter normal mouse behavior
